The assay can be described thus: Fluorescence response to Dalteparin sodium in buffer, serum and plasma. The assay is classed as binding. The note with it: fluorescence of perylene diimide derivative/LMWH mixture. Here is the method:
The response of the perylene diimide derivative to heparin was additionally studied using Dalteparin sodium (0.4-0.8 IU/mL), a clinically important LMWH preparation with a mean molecular weight of 5000 g/mol. Fluorescence was recorded with a portable fluorometer, equipped with a 485 nm excitation filter and a 665 nm cutoff emission filter. The latter filter offered good signal-to-background ratio since serum/plasma autofluorescence is very low above 665 nm. The fluorescence of the perylene diimide derivative decreased approximately linearly (FIG. 4c) with increasing LMWH concentration, in buffered solution. The binding ration was calculated to be one perylene diimide derivative/2 disaccharides of heparin. Solutions containing 20 vol % serum or plasma required an only slightly larger (about 1.1-fold) LMWH concentration to trigger the same relative fluorescence decrease as observed in buffered solution.

As to protamine, the “reversibility of LMWH binding on addition of protamine” value is given as “fluorescence was restored”.

The record behind these values is US9006261B2, “Fluorescent perylene derivatives for direct detection of heparin” (priority 2009, dated 2015).
